Reference: patent US6156790A, “C-10 carbon-substituted artemisinin-like trioxane compounds having antimalarial, antiproliferative and antitumor activities” (priority 1997, dated 2000)

Assays:
[1] = system: HCT-116; assay: cells; type: cell-based; settings: Homo sapiens, read-out: Log10 TGI (converted)
[2] = system: K-562; assay: cells; type: cell-based; settings: Homo sapiens, K562, read-out: Log10 TGI
[3] = system: HS 578T; assay: cells; type: cell-based; settings: Homo sapiens, read-out: Log10 TGI (converted)
[4] = system: MDA-N; assay: cells; type: cell-based; settings: Homo sapiens
[5] = system: HT29; assay: cells; type: cell-based; settings: Homo sapiens, HT-29, read-out: Log10 TGI (converted)
[6] = system: SNB-75; assay: cells; type: cell-based; settings: Homo sapiens
[7] = system: MCF7; assay: cells; type: cell-based; settings: Homo sapiens
[8] = system: 60 cell line panel; assay: NCI 60 cell line screen, whole panel; type: cell-based
[9] = system: KM12; assay: cells; type: cell-based; settings: Homo sapiens, read-out: Log10 TGI (converted)
[10] = system: HOP-92; assay: NCI 60 cell line screen (SRB), non-small cell lung cancer; type: cell-based; settings: Homo sapiens, read-out: Log10 TGI (converted)
[11] = system: MDA-MB-435; assay: cells; type: cell-based; settings: Homo sapiens, read-out: Log10 TGI (converted)
[12] = system: NCI-H522; assay: cells; type: cell-based; settings: Homo sapiens, read-out: Log10 TGI (converted)
[13] = system: U251; assay: cells; type: cell-based; settings: Homo sapiens, U-251, read-out: Log10 TGI (converted)
[14] = system: NCI-H460; assay: cells; type: cell-based; settings: Homo sapiens
[15] = system: PC-3; assay: cells; type: cell-based; settings: Homo sapiens, PC-3, read-out: Log10 TGI
[16] = system: SF-268; assay: NCI 60 cell line screen (SRB), CNS cancer; type: cell-based; settings: Homo sapiens, read-out: Log10 TGI (converted)
[17] = system: ACHN; assay: cells; settings: Homo sapiens, read-out: Log10 LC50 (converted)
[18] = system: HCT-15; assay: cells; type: cell-based; settings: Homo sapiens, HCT-15, read-out: Log10 TGI
[19] = system: NCI-H23; assay: NCI 60 cell line screen (SRB), non-small cell lung cancer; type: cell-based; settings: Homo sapiens
[20] = system: chloroquine-sensitive P. falciparum (NF54); assay: In vitro antimalarial activity ([3H]hypoxanthine incorporation); type: cell-based; settings: in words
Method: Activity was determined by measuring the incorporation of [^3 H]hypoxanthine, by the methods of Desjardins and Milhouse, with the following modofications, see […].; Haynes, […]. Antimicrob. Agents Chemother., 16:710 (1979); Milhous, W. K.; Weatherly, […].; Antimicrob. Agents Chemother., 27: 525 (1985). […] Parasitemia was maintained at 0.05-3% and doubling time at approximately 15 hours by twice weekly change of medium and replenishment with fresh erythrocytes. […] Sigma-Aldrich #27,043-1). DMSO solutions were diluted 500-fold in medium, serially diluted in 0.2% DMSO in medium (to maintain constant solvent concentration), then 100 μL aliquots were pipetted into microtiter plate wells (Costar 3595). […] Plates included at least 8 wells of no drug controls (4 with and 4 without DMSO) and 4 wells of uninfected erythrocytes. […] Cells were harvested (Brandel MB-48R) onto GF-C glass filters (Brandel). The filters were washed five times with 3 mL water per sample spot, dried under a heat lamp, and counted (Beckman Model LS-6500) in scintillation cocktail (ICN Cytoscint). Decays per minute (dpm) values were downloaded and analyzed (Power MFacintosh 7200/90; Microsoft Excel 5.0), to yield the mean and standard deviation at each drug concentration.

[21] = system: IGROVI; assay: cells; settings: 60 cell
[22] = system: NCI-H226; assay: NCI 60 cell line screen (SRB), non-small cell lung cancer; type: cell-based; settings: Homo sapiens
[23] = system: T-47D; assay: cells; type: cell-based; settings: Homo sapiens, T47D, read-out: Log10 TGI
[24] = system: BT-549; assay: cells; type: cell-based; settings: Homo sapiens, read-out: Log10 TGI (converted)
[25] = system: SF-295; assay: cells; type: cell-based; settings: Homo sapiens, read-out: Log10 TGI (converted)
[26] = system: murine keratinocyte cell line PE; assay: growth inhibition of PE cells (MTT assay); type: cell-based; settings: 100 nanomolar
Method: To determine the inhibitory effect of the compositions of the present invention on cell proliferation, screening assays were performed on a murine keratinocyte cell line PE. Cell line PE was chosen for its particular sensitivity to the induction of ornithine decarboxylase (ODC) activity by the extensively characterized tumor promoter TPA. […] PE cell culture medium consisted of Eagle's minimal essential medium without calcium chloride (Whittaker Bioproducts, Walkersville, Mass.) supplemented with 8% chelexed fetal calf serum and 1% antibiotic-antimycotic (Gibco BRL) and the addition of CaCl2 to 0.05 mM Ca^++.
Growth Inhibition. Growth curves, shown in FIGS. 1 and 2, for PE cells treated with calcitriol and the C-10 carbon-substituted dimers 21, 22, 26, 27, and 28 generated by assay for the reduction of the tetrazolium-based compound MTT, see Charmichael, et al., Cancer Res., 47:936-942 (1987). […] PE cells were seeded at a density of 5,000 cells/well in 50 μL of medium into 96-well microtiter plates. Twelve hours later, the medium was removed, and cells were treated with 100 μL of fresh medium into which the appropriate amount of calcitrol or analog dissolved in dimethyl sulfoxide (DMSO) had been added, with the concentration of DMSO held constant at 0.1%. […] At 24-hour intervals following the initial treatment of the cells with compounds, 0.1 mg (50 μL of a 2 mg/mL solution) of MTT was added to each well. After 4 hours, the MTT was removed and DMSO added to dissolve the blue formazan dye. Using a microtiter plate reader, the A505 was then determined and cell number calculated from blank-subtracted absorbance values.

[27] = system: MOLT-4; assay: cells; settings: Homo sapiens, MOLT-4, read-out: concentration for primary growth inhibition
Method: The screening assay is performed on a 96-well microtitre plates.
Dose response curves, shown in the above mentioned Figures, are obtained by exposing various cancer cell lines to compounds having a known concentration ([log10 M]), as discussed in detail above, and then plotting the percentage growth of each cell line for each concentration. […] As discussed previously, the five drug dilutions routinely tested range from 10^-4 to 10^-9 molar.

[28] = system: A498; assay: cells; type: cell-based; settings: Homo sapiens, read-out: Log10 GI50 (converted)
[29] = system: MDA-MB231/ATCC; assay: cells; type: cell-based; settings: Homo sapiens, MDA-MB-231, read-out: Log10 TGI (converted)
[30] = system: COLO 205; assay: NCI 60 cell line screen (SRB), colon cancer; type: cell-based; settings: Homo sapiens, read-out: Log10 TGI (converted)
[31] = system: HOP-62; assay: cells; type: cell-based; settings: Homo sapiens, read-out: Log10 TGI (converted)
[32] = system: A549/ATCC; assay: NCI 60 cell line screen (SRB), non-small cell lung cancer; type: cell-based; settings: Homo sapiens
[33] = system: SF-539; assay: cells; type: cell-based; settings: Homo sapiens, read-out: Log10 TGI (converted)
[34] = system: EKVX; assay: NCI 60 cell line screen (SRB), non-small cell lung cancer; type: cell-based; settings: Homo sapiens
[35] = cited from earlier work
[36] = system: P. berghei; settings: cited from earlier work
[37] = rat liver microsomes; cited from earlier work
[38] = system: Ehrlich ascites tumor (EAT) cells; settings: cited from earlier work
[39] = system: murine keratinocyte cell line PE; assay: viability by trypan blue exclusion; type: cell-based; settings: 96 hours
[40] = read-out: Log10 LC50 (converted)
[41] = read-out: Log10 TGI (converted)
[42] = read-out: Log10 GI50 (converted)

With C[C@H]1[C@@H](CC(=O)c2cccc(C(=O)C[C@H]3O[C@@H]4O[C@@]5(C)CC[C@H]6[C@H](C)CC[C@@H]([C@H]3C)[C@@]46OO5)c2)O[C@@H]2O[C@@]3(C)CC[C@H]4[C@H](C)CC[C@@H]1[C@@]24OO3 [Dimer 22] the IC (TGI) [1] was > 100 µM, the IC (TGI) [2] was > 100 µM and the IC (TGI) [3] was > 100 µM. For the same compound, the CC50 [4, 40] was > 100 µM, the IC (TGI) [4, 41] was > 100 µM and the IC (TGI) [5] was > 100 µM. The GI50 [6, 42] was 4.37 µM, the IC (TGI) [6, 41] was > 100 µM and the IC (TGI) ([7]; MCF7, read-out: Log10 TGI) was > 100 µM. The GI50 ([7]; MCF7, read-out: Log10 GI50 (converted)) was 0.389 µM, the GI50 ([8]; 60 cell, mean over panel, read-out: Log10 GI50 MG MID (converted)) was 75.9 µM and the “Log10 TGI Delta” value ([8]; panel) was 0.00. For the same compound, the “Log10 TGI Range” value ([8]; panel) was 0.00, the IC (TGI) [9] was > 100 µM and the IC (TGI) [10] was > 100 µM. The IC (TGI) [11] was > 100 µM, the IC (TGI) [12] was > 100 µM and the IC (TGI) [13] was > 100 µM. The IC (TGI) ([14]; NCI-H460, read-out: Log10 TGI) was > 100 µM, the CC50 ([14]; NCI-H460, read-out: Log10 LC50 (converted)) was > 100 µM and the IC (TGI) [15] was > 100 µM. The IC (TGI) [16] was > 100 µM, the CC50 [17] was > 100 µM and the IC (TGI) [18] was > 100 µM. The LC50 [19, 40] was > 100 µM, the IC (TGI) [19, 41] was > 100 µM and the “IC50 compared with artemisinin” value [20] was “lower than that of artemisinin”. For the same compound, the GI50 [21, 42] was 0.589 µM, the CC50 ([21]; Homo sapiens, read-out: Log10 LC50 (converted)) was > 100 µM and the CC50 [22, 40] was > 100 µM. The IC (TGI) [22, 41] was > 100 µM, the IC (TGI) [23] was > 100 µM and the IC (TGI) [24] was > 100 µM. For the same compound, the IC (TGI) [25] was > 100 µM, the “antiproliferative activity compared with calcitriol” value [26] was “at least as antiproliferative as calcitrol” and the GI50 [27] was > 100 µM. The GI50 [28] was 46.8 µM, the IC (TGI) [29] was > 100 µM and the IC (TGI) [30] was > 100 µM. The IC (TGI) [31] was > 100 µM, the CC50 [32, 40] was > 100 µM and the IC (TGI) [32, 41] was > 100 µM. The IC (TGI) [33] was > 100 µM, the CC50 [34, 40] was > 100 µM and the IC (TGI) [34, 41] was > 100 µM.
For C[C@@H]1CC[C@H]2[C@@H](C)C(O)O[C@@H]3O[C@@]4(C)CC[C@@H]1[C@]32OO4 (some centres unmarked) [dihydroartemisinin (II-1), dihydroartemisinin], the half-life in plasma [35] is given as “less than two”.
In the case of CC1=CO[C@@H]2O[C@@]3(C)CC[C@H]4[C@H](C)CC[C@@H]1[C@@]24OO3 [olefinic compound III], the “activity against P. berghei-infected mice” value ([36]; in words) is given as “inactive”.
For CCO[C@H]1O[C@@H]2O[C@@]3(C)CC[C@H]4[C@H](C)CC[C@@H]([C@H]1C)[C@@]24OO3 [arteether], the “conversion into dihydroartemisinin (II-1)” value [37] is listed as “rapidly converted”.
In the case of C[C@@H]1CC[C@H]2[C@@H](C)C(OC3O[C@@H]4O[C@@]5(C)CC[C@H]6[C@H](C)CC[C@@H]([C@H]3C)[C@@]46OO5)O[C@@H]3O[C@@]4(C)CC[C@@H]1[C@]32OO4 (some centres unmarked), the “SD90 (parasitemia 90 percent suppressed)” value ([36]; P. berghei-infected mice) is given as 10 mg/kg, the “times more cytotoxic than artemisinin” value [38] is given as “approximately twenty-two” and the “times more cytotoxic than dihydroartemisinin (II-1)” value [38] is given as “sixty”. The “times more potent than artemisinin at 50% growth inhibition” value ([38]; one cancer cell line) was “approximately twenty-two”.
In the case of C=C1/C(=C\C=C2/CCC[C@]3(C)[C@@H]([C@H](C)CCCC(C)(C)O)CC[C@@H]23)C[C@@H](O)C[C@@H]1O [calcitriol, 1α,25-dihydroxyvitamin D3], the “viability of treated cells vs control cells” value [39] is reported as “identical to control cells”.
